The source of these data is US20230399378A1, “PEPTIDE-BASED DELIVERY OF AGENTS” (THE FLOREY INSTITUTE OF NEUROSCIENCE AND MENTAL HEALTH, priority 2020, published 2023).

Structures are written as SMILES. Square brackets hold non-standard residues; d marks the D form. Side chains are listed from the residue outwards. Peptide text beside a SMILES is read from it. AEEA = NCCOCCOCC(=O)O; Mpa = O=C(O)CCS

A short description of this series: Serum stability in 50% human serum at 37 °C (RP-HPLC, one-phase decay half-life). The note with it: for proteolytic stability compared to the parent L-peptides: 50% human serum, 37° C.; for half-life at 500 µM: human, serum (50% human serum).

Protocol: Serum stability analysis was conducted for each peptide (7×50 nmol) shown in Table 3 in 50% human serum (100 μL) at 37° C. At the end of each time point (0, 10, 30, 60, 120, 240, and 480 min), 1 M guanidine hydrochloride solution (200 μL) and ice-cold acetonitrile (600 μL) were added, and the serum-peptide solution was centrifuged at 14000 g for 10 min. The supernatant was lyophilised and redissolved in water (200 μL). All samples were analysed by RP-HPLC in the presence of phenol (50 nmol) as an internal standard, using water and acetonitrile containing 0.1% TFA, with a gradient of 10-80% acetonitrile over 30 min, and a flow rate of 1.5 mL/min. The percentage of peptide remaining was measured based on the area under curve. The percentage of peptide remaining versus time data was fitted to a non-linear one-phase exponential decay model in GraphPad Prism 9.2.0 to determine the half-life for each peptide.

For `CC[C@@H](C)[C@@H](NC(=O)[C@@H](C)NC(=O)[C@@H](Cc1c[nH]cn1)NC(=O)[C@@H](Cc1ccccc1)NC(=O)[C@H](NC(=O)[C@@H](Cc1c[nH]cn1)NC(=O)CNC(=O)CNC(=O)[C@@H](Cc1c[nH]c2ccccc12)NC(=O)[C@@H](Cc1c[nH]cn1)NC(C)=O)[C@H](C)CC)C(=O)N[C@H](C)C(=O)N[C@H](Cc1c[nH]cn1)C(=O)N[C@H](Cc1ccccc1)C(=O)N[C@H](CC(C)C)C(=O)NCC(=O)NCCOCCOCC(=O)N[C@@H](CCCCNC(=O)COCCOCCNC(=O)CCS)C(=O)NCCOCCOCC(=O)N[C@H](CCCNC(=N)N)C(=O)N[C@H](CC(C)C)C(=O)N[C@H](CC(C)C)C(=O)N[C@H](CCCNC(=N)N)C(=O)N[C@H](CCCCN)C(=O)N[C@H](CCCNC(=N)N)C(=O)N[C@H](CC(C)C)C(=O)N[C@H](CCCCN)C(=O)N[C@H](CCCNC(=N)N)C(=O)N[C@H](CC(C)C)C(=O)N[C@H](Cc1c[nH]cn1)C(=O)N[C@H](CO)C(=O)N[C@H](C)C(=O)N[C@H](CC(C)C)C(=O)N[C@H](CCCNC(=N)N)C(=O)N[C@@H](C(=O)N[C@H](CCCNC(=N)N)C(=O)N[C@H](CC(C)C)C(=O)O)C(C)C` [RI Br-HA2-(TPA)-ApoE(133-150), Ac-hwgghifhaiahflg-mPEG-K(mPEG-TPA)-mPEG-rllrkrlkrlhsalrvrl] (Ac-[dH][dW]GG[dH][dI][dF][dH][dA][dI][dA][dH][dF][dL]G[AEEA]K([AEEA-Mpa])[AEEA][dR][dL][dL][dR][dK][dR][dL][dK][dR][dL][dH][dS][dA][dL][dR][dV][dR][dL]-OH), the “proteolytic stability compared to the parent L-peptides” value is “significantly higher proteolytic stability” and the half-life at 500 µM is 1.6 h. For the molecule `CC[C@@H](C)[C@@H](NC(=O)[C@@H](C)NC(=O)[C@@H](Cc1c[nH]cn1)NC(=O)[C@@H](Cc1ccccc1)NC(=O)[C@H](NC(=O)[C@@H](Cc1c[nH]cn1)NC(=O)CNC(=O)CNC(=O)[C@@H](Cc1c[nH]c2ccccc12)NC(=O)[C@@H](Cc1c[nH]cn1)NC(C)=O)[C@H](C)CC)C(=O)N[C@H](C)C(=O)N[C@H](Cc1c[nH]cn1)C(=O)N[C@H](Cc1ccccc1)C(=O)N[C@H](CC(C)C)C(=O)NCC(=O)NCCOCCOCC(=O)N[C@@H](CCCCNC(=O)COCCOCCNC(=O)CCS)C(=O)NCCOCCOCC(=O)N[C@H](CCCNC(=N)N)C(=O)N[C@H](CC(C)C)C(=O)N[C@H](CC(C)C)C(=O)N[C@H](CCCNC(=N)N)C(=O)N[C@H](CCCCN)C(=O)N[C@H](CCCNC(=N)N)C(=O)N[C@H](CC(C)C)C(=O)N[C@H](CCCCN)C(=O)N[C@H](CCCNC(=N)N)C(=O)N[C@H](CC(C)C)C(=O)O` [RI Br-HA2-(TPA)-ApoE(141-150), Ac-hwgghifhaiahflg-mPEG-K(mPEG-TPA)-mPEG-rllrkrlkrl] (Ac-[dH][dW]GG[dH][dI][dF][dH][dA][dI][dA][dH][dF][dL]G[AEEA]K([AEEA-Mpa])[AEEA][dR][dL][dL][dR][dK][dR][dL][dK][dR][dL]-OH), the half-life at 500 µM is 0.3 h.

`CC(C)C[C@@H](NC(=O)[C@@H](CCCNC(=N)N)NC(=O)[C@H](NC(=O)[C@@H](CCCNC(=N)N)NC(=O)[C@@H](CC(C)C)NC(=O)[C@@H](C)NC(=O)[C@@H](CO)NC(=O)[C@@H](Cc1c[nH]cn1)NC(=O)[C@@H](CC(C)C)NC(=O)[C@@H](CCCNC(=N)N)NC(=O)[C@@H](CCCCN)NC(=O)[C@@H](CC(C)C)NC(=O)[C@@H](CCCNC(=N)N)NC(=O)[C@@H](CCCCN)NC(=O)[C@@H](CCCNC(=N)N)NC(=O)[C@@H](CC(C)C)NC(=O)[C@@H](CC(C)C)NC(=O)[C@@H](CCCNC(=N)N)NC(=O)COCCOCCNC(=O)CCS)C(C)C)C(=O)O` [RI TPA-ApoE(133-150), TPA-mPEG-rllrkrlkrlhsalrvrl] ([Mpa][AEEA][dR][dL][dL][dR][dK][dR][dL][dK][dR][dL][dH][dS][dA][dL][dR][dV][dR][dL]-OH): the “proteolytic stability compared to the parent L-peptides” value is on record as “significantly higher proteolytic stability” and the half-life at 500 µM was 11.2 h. For `CC[C@@H](C)[C@@H](NC(=O)[C@@H](C)NC(=O)[C@@H](Cc1c[nH]cn1)NC(=O)[C@@H](Cc1ccccc1)NC(=O)[C@H](NC(=O)[C@@H](Cc1c[nH]cn1)NC(=O)CNC(=O)CNC(=O)[C@@H](Cc1c[nH]c2ccccc12)NC(=O)[C@@H](Cc1c[nH]cn1)NC(=O)COCCOCCNC(=O)CCS)[C@H](C)CC)C(=O)N[C@H](C)C(=O)N[C@H](Cc1c[nH]cn1)C(=O)N[C@H](Cc1ccccc1)C(=O)N[C@H](CC(C)C)C(=O)NCC(=O)NCCOCCOCC(=O)N[C@@H](CCCCN)C(=O)NCCOCCOCC(=O)N[C@H](CCCNC(=N)N)C(=O)N[C@H](CC(C)C)C(=O)N[C@H](CC(C)C)C(=O)N[C@H](CCCNC(=N)N)C(=O)N[C@H](CCCCN)C(=O)N[C@H](CCCNC(=N)N)C(=O)N[C@H](CC(C)C)C(=O)N[C@H](CCCCN)C(=O)N[C@H](CCCNC(=N)N)C(=O)N[C@H](CC(C)C)C(=O)N[C@H](Cc1c[nH]cn1)C(=O)N[C@H](CO)C(=O)N[C@H](C)C(=O)N[C@H](CC(C)C)C(=O)N[C@H](CCCNC(=N)N)C(=O)N[C@@H](C(=O)N[C@H](CCCNC(=N)N)C(=O)N[C@H](CC(C)C)C(=O)O)C(C)C` [RI TPA-HA2-ApoE(133-150), TPA-mPEG-hwgghifhaiahflg-mPEG-K-mPEG-rllrkrlkrlhsalrvrl] ([Mpa][AEEA][dH][dW]GG[dH][dI][dF][dH][dA][dI][dA][dH][dF][dL]G[AEEA]K[AEEA][dR][dL][dL][dR][dK][dR][dL][dK][dR][dL][dH][dS][dA][dL][dR][dV][dR][dL]-OH), in that order: “significantly higher proteolytic stability” and 1.6 h.

The molecule `CC[C@@H](C)[C@@H](NC(=O)[C@@H](C)NC(=O)[C@@H](Cc1c[nH]cn1)NC(=O)[C@@H](Cc1ccccc1)NC(=O)[C@H](NC(=O)[C@@H](Cc1c[nH]cn1)NC(=O)CNC(=O)CNC(=O)[C@@H](Cc1c[nH]c2ccccc12)NC(=O)[C@@H](Cc1c[nH]cn1)NC(=O)COCCOCCNC(=O)CCS)[C@H](C)CC)C(=O)N[C@H](C)C(=O)N[C@H](Cc1c[nH]cn1)C(=O)N[C@H](Cc1ccccc1)C(=O)N[C@H](CC(C)C)C(=O)NCC(=O)NCCOCCOCC(=O)N[C@@H](CCCCN)C(=O)NCCOCCOCC(=O)N[C@H](CCCNC(=N)N)C(=O)N[C@H](CC(C)C)C(=O)N[C@H](CC(C)C)C(=O)N[C@H](CCCNC(=N)N)C(=O)N[C@H](CCCCN)C(=O)N[C@H](CCCNC(=N)N)C(=O)N[C@H](CC(C)C)C(=O)N[C@H](CCCCN)C(=O)N[C@H](CCCNC(=N)N)C(=O)N[C@H](CC(C)C)C(=O)O` [RI TPA-HA2-ApoE(141-150), TPA-mPEG-hwgghifhaiahflg-mPEG-K-mPEG-rllrkrlkrl] ([Mpa][AEEA][dH][dW]GG[dH][dI][dF][dH][dA][dI][dA][dH][dF][dL]G[AEEA]K[AEEA][dR][dL][dL][dR][dK][dR][dL][dK][dR][dL]-OH) gave a half-life at 500 µM of 0.4 h.
